Experimental data: ChEMBL document CHEMBL1201862, “PubChem BioAssay data set” (2004)
Activity calls are given as the source filed them.

Tests used:
[1] = A cytotoxicity screen of small molecule inhibitors of the PhoP region in Salmonella typhi identified in the primary screen. [Related pubchem assays: 1850, 1864, 1985 ]; assay type: functional
[2] = target: Peroxisome proliferator-activated receptor gamma/Nuclear receptor coactivator 2 (Homo sapiens, UniProt P37231); assay type: functional;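 also: agonist potency for raising coactivator recruitment to the receptor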
[3] = target: Peroxisome proliferator-activated receptor gamma/Nuclear receptor coactivator 3 (Homo sapiens, UniProt P37231); assay type: functional;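 also: agonist potency for raising coactivator recruitment to the receptor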
[4] = target: Peroxisome proliferator-activated receptor gamma/Nuclear receptor coactivator 1 (Homo sapiens, UniProt P37231); assay type: functional;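 also: agonist potency as compounds enhance coactivator SRC-1 recruitment to PPARgamma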
[5] = loss of viability in HepG2 cells – cell-based, CellTiter-Glo, cherry-picked, cytotoxicity control for Shn3 inhibitor project, dose response (AID 624134); assay type: functional
[6] = reduction of Shn3 3'UTR-driven luciferase in osteoblasts – cell-based, Clone20 osteoblasts, firefly luciferase, cherry-picked, dose response (AID 624132); assay type: functional;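 also: firefly luciferase luminescence from reporter carrying the Shn3 3'UTR in osteoblasts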
[7] = non-specific 3'UTR reporter inhibition in Clone20-Shn3RL – cell-based, Renilla luciferase, cherry-picked, counter-screen for Shn3 inhibitor project, dose response (AID 624133); assay type: functional
Cytochrome P450 2C19 = Cytochrome P450 2C19 (Homo sapiens, UniProt P33261); test: Cytochrome panel assay with activity outcomes. Panel member name: p450-cyp2c19 Compounds with AC50 equal or less than 10 uM are considered active; assay type: functional; details: read-out: AC50
Cytochrome P450 1A2 = target: T1, Cytochrome P450 1A2 (Homo sapiens, UniProt P05177);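 also: PubChem cytochrome P450 panel assay, CYP1A2 panel member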
T1 sequence (P05177 whole entry): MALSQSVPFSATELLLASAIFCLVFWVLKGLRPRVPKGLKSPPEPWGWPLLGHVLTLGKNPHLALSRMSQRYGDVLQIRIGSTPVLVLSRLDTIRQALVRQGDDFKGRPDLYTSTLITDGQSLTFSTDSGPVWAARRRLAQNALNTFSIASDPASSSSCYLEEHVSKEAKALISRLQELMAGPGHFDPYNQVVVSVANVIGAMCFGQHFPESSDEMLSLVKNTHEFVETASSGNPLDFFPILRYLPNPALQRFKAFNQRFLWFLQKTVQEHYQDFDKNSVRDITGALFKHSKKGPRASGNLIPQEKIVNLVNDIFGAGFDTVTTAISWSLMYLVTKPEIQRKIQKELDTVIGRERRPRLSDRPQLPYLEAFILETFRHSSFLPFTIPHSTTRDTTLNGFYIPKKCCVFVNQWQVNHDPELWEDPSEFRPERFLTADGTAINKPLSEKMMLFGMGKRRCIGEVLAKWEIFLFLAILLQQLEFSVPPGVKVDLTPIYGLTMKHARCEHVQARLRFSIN

Cytochrome P450 3A4 = Cytochrome P450 3A4 (Homo sapiens, UniProt P08684);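 also: CYP3A4 tested as one member of a cytochrome P450 panel screen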
[8] = target: T2, Polyadenylate-binding protein 1 (Homo sapiens, UniProt P11940); test: MLLE domain peptide-binding blockers, IC50 – biochemical, fluorescence polarization, FITC-PAM2 peptide, dose response (AID 602259); assay type: functional; details: read-out: IC50_Mean
[9] = target: T2, Polyadenylate-binding protein 1; test: MLLE binding blockers, Cy5 peptide tracer – biochemical, fluorescence polarization, Cy5-PAM2 peptide, secondary, miRNA deadenylation inhibitor project, dose response (AID 602260); assay type: functional; details: read-out: IC50_Mean
[10] = target: T3, Heat shock factor protein 1 (Mus musculus, UniProt P38532); test: decrease of HSF1-responsive luciferase luminescence – cell-based, NIH3T3, dose retest, confirmation (AID 2382); assay type: functional;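 also: NIH3T3 fibroblasts with HSF1-driven luciferase reporter stressed by proteasome inhibitor MG132; luminescence from HSF1-driven luciferase expression after 8 hours of MG132 stress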
T3 sequence (P38532 whole entry): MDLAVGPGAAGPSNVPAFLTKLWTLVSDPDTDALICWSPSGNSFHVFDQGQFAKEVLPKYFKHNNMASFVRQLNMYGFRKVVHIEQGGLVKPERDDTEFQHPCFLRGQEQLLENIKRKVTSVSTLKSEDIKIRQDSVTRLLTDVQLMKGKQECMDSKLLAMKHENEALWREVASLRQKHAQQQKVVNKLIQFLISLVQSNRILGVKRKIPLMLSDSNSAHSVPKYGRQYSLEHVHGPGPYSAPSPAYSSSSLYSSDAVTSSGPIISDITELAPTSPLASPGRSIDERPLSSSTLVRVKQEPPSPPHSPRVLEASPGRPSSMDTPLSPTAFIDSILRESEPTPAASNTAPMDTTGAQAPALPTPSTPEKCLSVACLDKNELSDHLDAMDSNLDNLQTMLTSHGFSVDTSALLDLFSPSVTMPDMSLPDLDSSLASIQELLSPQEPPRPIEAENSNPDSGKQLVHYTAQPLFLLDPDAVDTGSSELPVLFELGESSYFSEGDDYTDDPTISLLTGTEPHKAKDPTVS

[11] = target: T4, Endoribonuclease toxin MazF (Escherichia coli K-12, UniProt P0AE70); test: activation of MazEF endoribonuclease cleavage – biochemical, fluorescence, single-stranded RNA substrate, uHTS hits, dose response (AID 588481); assay type: functional
T4 sequence (P0AE70 whole entry): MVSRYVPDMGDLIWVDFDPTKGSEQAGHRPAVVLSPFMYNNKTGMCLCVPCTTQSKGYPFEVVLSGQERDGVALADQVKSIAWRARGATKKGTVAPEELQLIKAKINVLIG

[12] = target: T4, Endoribonuclease toxin MazF; test: substrate-only fluorescence increase artefacts – biochemical, single-stranded RNase substrate, counter-screen for MazEF activator project, dose response (AID 588502); assay type: functional
[13] = target: T5, RNA-binding protein pos-1 (Caenorhabditis elegans, UniProt G5EF15); test: disruptors of C. elegans POS-1 RNA interaction – biochemical, fluorescence polarization, dose response (AID 1964);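 also: purified POS-1 fused to maltose binding protein made in E. coli; potency of compounds blocking POS-1 binding to fluorescent RNA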
T5 sequence (G5EF15 whole entry): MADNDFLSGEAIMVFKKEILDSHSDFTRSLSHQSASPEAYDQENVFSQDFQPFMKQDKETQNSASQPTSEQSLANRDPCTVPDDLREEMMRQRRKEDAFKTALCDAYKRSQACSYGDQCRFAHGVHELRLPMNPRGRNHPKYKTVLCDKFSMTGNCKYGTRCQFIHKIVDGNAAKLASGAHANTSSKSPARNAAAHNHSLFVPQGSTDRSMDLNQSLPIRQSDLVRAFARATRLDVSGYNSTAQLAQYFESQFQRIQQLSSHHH

[14] = target: T6, Zinc finger protein mex-5 (Caenorhabditis elegans, UniProt Q9XUB2); test: potency of MEX-5 RNA-binding blockers – biochemical, C. elegans, fluorescence polarization, dose response (AID 1960)
T6 sequence (Q9XUB2 whole entry): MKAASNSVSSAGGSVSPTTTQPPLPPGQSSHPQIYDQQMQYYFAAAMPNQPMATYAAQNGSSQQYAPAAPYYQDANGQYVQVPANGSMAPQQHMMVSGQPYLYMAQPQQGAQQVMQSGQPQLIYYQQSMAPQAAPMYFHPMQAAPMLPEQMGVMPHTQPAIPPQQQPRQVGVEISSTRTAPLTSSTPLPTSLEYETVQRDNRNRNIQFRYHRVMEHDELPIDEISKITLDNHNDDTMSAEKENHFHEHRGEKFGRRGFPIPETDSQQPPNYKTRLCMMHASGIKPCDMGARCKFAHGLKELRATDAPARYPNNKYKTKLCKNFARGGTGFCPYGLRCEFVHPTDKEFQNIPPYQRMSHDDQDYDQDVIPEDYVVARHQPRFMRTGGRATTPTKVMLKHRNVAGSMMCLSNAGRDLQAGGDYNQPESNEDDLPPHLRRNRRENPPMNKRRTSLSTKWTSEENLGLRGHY

[15] = microbe, parasite or virus in culture; assay type: functional; details: Mycobacterium tuberculosis
INS1 = test: INS-1E survival protection against cytokine death – cell-based, luminescence, retest, dose response (AID 449756); assay type: functional; details: Rattus norvegicus;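 also: cell death triggered by IL-1 beta plus TNF-alpha plus IFN-gamma mixture; protective hits raise ATP signal compared with cytokine alone wells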
[16] = viability of PTEN-deleted HCT116 cells – cell-based, HCT116 PTEN knockout, dose response (AID 1047); assay type: functional;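 also: HCT116 colon tumor cells with PTEN knocked out; cells exposed to compound for 60 hours before readout; potency for loss of cell viability measured by luminescence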
[17] = Luminescence Cell-Based Dose Retest to Confirm Inhibitors of Cancer Stem Cells. [Related pubchem assays (depositor defined):AID2717, AID2721]; assay type: functional; details: Homo sapiens
[18] = viability of HCT116 lacking mutant beta-catenin – cell-based, human colon tumor, dose response (AID 1045); assay type: functional;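 also: HCT116 colon tumor cells with beta catenin knocked out; cells exposed to compound for 60 hours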
[19] = target: Induced myeloid leukemia cell differentiation protein Mcl-1 (Homo sapiens, UniProt Q07820); assay type: functional
[20] = target: Eukaryotic translation initiation factor 4E (Mus musculus, UniProt P63073); test: blockers of eIF4G binding by eIF4E – biochemical, TR-FRET, dose response (AID 855); assay type: functional;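 also: potency for disrupting eIF4E binding to eIF4GI seen as loss of FRET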
Chain of Eukaryotic translation initiation factor 4E (P63073 whole entry): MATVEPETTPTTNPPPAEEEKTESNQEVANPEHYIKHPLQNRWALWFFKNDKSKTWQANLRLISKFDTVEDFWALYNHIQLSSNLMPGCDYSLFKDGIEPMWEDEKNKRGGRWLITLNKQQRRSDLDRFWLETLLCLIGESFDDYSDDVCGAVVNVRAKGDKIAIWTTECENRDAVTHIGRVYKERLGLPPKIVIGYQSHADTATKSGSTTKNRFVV

Chain of Peroxisome proliferator-activated receptor gamma/Nuclear receptor coactivator 3 (P37231 whole entry): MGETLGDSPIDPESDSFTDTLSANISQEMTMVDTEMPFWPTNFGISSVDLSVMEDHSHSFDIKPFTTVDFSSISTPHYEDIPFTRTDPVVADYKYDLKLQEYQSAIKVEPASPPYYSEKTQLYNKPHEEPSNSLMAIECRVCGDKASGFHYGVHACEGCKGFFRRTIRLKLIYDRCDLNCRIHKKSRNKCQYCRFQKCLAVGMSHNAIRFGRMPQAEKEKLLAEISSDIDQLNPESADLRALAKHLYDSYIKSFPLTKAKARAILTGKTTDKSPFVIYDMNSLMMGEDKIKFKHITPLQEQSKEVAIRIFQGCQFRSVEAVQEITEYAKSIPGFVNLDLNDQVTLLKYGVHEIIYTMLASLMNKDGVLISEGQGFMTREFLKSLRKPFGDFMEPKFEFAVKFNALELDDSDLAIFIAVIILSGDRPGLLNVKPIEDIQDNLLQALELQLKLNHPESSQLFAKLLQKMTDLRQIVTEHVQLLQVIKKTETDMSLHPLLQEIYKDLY
Chain of Peroxisome proliferator-activated receptor gamma/Nuclear receptor coactivator 3 (Q9Y6Q9 whole entry, further chain): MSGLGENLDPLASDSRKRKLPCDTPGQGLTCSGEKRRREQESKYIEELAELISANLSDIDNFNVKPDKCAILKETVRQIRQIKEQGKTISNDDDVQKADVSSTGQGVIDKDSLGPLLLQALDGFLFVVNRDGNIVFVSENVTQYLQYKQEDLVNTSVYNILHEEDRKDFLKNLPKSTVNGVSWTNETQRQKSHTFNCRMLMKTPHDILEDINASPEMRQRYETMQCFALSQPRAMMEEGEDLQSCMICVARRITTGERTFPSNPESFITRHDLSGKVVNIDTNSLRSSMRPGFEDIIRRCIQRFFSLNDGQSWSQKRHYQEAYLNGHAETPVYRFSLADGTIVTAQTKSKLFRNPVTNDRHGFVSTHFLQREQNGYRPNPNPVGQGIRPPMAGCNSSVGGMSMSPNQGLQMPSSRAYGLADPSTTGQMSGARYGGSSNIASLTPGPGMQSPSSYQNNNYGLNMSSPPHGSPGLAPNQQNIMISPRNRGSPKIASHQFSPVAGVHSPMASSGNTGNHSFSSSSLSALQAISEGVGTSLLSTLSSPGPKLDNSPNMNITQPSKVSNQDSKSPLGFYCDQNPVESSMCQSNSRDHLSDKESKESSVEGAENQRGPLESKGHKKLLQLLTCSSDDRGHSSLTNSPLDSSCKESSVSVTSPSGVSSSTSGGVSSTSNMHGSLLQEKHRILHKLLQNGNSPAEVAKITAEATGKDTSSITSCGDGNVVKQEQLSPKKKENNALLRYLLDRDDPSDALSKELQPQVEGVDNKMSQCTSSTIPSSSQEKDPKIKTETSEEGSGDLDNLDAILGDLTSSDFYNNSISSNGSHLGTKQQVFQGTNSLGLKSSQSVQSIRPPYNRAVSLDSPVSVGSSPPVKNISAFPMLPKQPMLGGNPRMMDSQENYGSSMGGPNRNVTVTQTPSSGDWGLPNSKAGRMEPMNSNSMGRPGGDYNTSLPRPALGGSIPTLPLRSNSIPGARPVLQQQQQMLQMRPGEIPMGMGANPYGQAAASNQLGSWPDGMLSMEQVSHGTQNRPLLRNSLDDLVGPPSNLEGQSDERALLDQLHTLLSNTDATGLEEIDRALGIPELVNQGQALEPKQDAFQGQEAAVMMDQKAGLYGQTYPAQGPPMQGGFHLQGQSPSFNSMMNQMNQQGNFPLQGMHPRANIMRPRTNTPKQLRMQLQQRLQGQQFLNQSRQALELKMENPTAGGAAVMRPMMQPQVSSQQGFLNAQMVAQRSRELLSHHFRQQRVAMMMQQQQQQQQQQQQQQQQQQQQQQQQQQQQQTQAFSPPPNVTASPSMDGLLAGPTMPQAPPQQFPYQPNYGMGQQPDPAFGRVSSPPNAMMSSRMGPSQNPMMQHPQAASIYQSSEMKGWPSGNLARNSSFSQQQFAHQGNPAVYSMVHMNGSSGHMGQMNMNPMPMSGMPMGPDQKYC
Chain of Peroxisome proliferator-activated receptor gamma/Nuclear receptor coactivator 2 (P37231 whole entry): as the sequence (P37231 whole entry) above
Chain of Peroxisome proliferator-activated receptor gamma/Nuclear receptor coactivator 2 (Q15596 whole entry, further chain): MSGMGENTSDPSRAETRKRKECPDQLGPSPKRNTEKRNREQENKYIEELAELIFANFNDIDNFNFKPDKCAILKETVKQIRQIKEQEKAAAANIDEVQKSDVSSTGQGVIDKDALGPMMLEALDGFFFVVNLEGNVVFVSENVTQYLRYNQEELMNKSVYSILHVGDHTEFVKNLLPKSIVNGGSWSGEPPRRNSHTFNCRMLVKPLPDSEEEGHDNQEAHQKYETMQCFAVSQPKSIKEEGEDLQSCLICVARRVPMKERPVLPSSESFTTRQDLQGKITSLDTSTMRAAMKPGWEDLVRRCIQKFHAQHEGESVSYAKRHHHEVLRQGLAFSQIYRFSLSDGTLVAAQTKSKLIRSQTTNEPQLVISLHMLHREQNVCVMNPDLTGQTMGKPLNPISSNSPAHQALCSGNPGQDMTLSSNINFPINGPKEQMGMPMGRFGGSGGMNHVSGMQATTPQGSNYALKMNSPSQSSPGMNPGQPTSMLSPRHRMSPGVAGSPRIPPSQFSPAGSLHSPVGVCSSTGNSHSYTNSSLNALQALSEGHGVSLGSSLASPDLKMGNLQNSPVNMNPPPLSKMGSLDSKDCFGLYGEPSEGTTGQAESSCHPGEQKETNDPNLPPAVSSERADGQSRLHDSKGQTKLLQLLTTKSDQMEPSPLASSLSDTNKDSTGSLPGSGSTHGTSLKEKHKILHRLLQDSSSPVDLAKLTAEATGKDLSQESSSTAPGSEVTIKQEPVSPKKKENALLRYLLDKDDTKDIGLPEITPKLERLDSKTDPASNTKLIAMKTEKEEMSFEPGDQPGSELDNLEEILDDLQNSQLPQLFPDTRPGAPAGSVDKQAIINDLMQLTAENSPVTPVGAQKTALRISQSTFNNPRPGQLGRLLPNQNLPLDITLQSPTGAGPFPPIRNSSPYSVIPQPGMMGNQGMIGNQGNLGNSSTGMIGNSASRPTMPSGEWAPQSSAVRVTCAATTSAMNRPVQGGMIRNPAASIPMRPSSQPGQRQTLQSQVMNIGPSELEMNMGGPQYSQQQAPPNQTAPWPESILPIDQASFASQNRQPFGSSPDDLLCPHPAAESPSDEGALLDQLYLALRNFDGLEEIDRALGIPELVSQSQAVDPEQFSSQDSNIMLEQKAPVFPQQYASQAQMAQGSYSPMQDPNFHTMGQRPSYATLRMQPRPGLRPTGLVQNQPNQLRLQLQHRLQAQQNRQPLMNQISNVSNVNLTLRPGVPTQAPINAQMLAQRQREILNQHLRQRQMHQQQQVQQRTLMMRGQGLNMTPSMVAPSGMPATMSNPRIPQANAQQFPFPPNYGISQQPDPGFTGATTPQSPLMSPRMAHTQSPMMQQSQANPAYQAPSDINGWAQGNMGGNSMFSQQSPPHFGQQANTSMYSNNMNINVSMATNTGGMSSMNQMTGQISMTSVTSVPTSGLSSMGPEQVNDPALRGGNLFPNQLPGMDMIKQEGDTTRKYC
T2 sequence (P11940 whole entry, the tested form may be a part): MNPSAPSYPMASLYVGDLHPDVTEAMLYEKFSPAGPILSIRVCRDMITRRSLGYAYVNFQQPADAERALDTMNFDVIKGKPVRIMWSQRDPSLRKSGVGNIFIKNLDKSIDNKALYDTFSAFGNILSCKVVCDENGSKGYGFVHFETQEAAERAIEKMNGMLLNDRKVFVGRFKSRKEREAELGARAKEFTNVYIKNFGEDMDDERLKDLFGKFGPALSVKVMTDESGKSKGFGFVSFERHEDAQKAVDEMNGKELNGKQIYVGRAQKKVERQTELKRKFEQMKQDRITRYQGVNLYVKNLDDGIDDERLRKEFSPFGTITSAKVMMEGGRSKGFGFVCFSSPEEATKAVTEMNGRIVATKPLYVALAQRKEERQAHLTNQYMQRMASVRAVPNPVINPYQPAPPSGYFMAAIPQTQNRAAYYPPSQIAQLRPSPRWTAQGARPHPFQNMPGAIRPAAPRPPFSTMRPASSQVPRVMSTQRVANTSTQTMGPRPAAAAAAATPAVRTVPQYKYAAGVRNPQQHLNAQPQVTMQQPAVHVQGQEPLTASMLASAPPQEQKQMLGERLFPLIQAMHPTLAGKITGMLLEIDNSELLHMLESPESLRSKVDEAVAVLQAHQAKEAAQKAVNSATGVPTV

Cc1[nH]c2ccc(C(=O)Nc3ccncc3)cc2c1C
EC50 [1]: > 50 µM (active)

Cn1c(=O)c2c(ncn2CCNC2=NCCCCC2)n(C)c1=O
EC50 [2]: > 79.4 µM (not active)
EC50 [3]: > 79.4 µM (not active)
EC50 [4]: > 79.4 µM (not active)

Cc1cccc(NC(=O)Cn2cc(C(=O)C3CC3)c3ccccc32)c1C
AC50 [5]: 66 µM (active)
AC50 [6]: 2.39 µM (active)
AC50 [7]: 3.05 µM (active)

O=C(COc1ccc2ccccc2c1)NNC(=O)Cc1ccccc1
EC50 [2]: 5.17 µM (active)
EC50 [3]: 6.57 µM (active)
EC50 [4]: 6.07 µM (active)

Cc1ccc(CSc2nc3c(cc2C#N)CCC3)cc1
EC50 [2]: 28.5 µM (not active)
EC50 [3]: 47.6 µM (not active)
EC50 [4]: 42.7 µM (not active)

CC(C)C(=O)N1C2CCC1CC(O)(c1ccc(F)cc1)C2 (stereo not given)
EC50 [2]: > 79.4 µM (not active)
EC50 [3]: > 79.4 µM (not active)
EC50 [4]: > 79.4 µM (not active)
AC50 (Cytochrome P450 2C19): 20 µM (inconclusive)
AC50 (Cytochrome P450 1A2): 17.8 µM (inconclusive)
AC50 (Cytochrome P450 3A4): 22.4 µM (inconclusive)

O=C1c2ccccc2NC(c2cccc([N+](=O)[O-])c2)N1CCc1ccccc1 (stereo not given)
EC50 [1]: > 50 µM (active)

O=C(Nc1ccc(F)cc1)C1CCC(CNc2c(N3CCCCC3)c(=O)c2=O)CC1 (stereo not given)
EC50 [1]: > 50 µM (active)

COC(=O)c1cc(NC(S)=Nc2cc(Cl)cc(Cl)c2)cc(C(=O)OC)c1
IC50 [8]: > 66 µM (inactive)
IC50 [9]: > 66 µM (inactive)

Cc1cc(NC(=O)c2ccc3[nH]c(C)c(C)c3c2)ccn1
EC50 [1]: > 50 µM (active)

Cc1nc2scc(C)n2c(=O)c1S(=O)(=O)N1CCN(c2cccc(C(F)(F)F)c2)CC1
EC50 [1]: > 50 µM (active)
EC50 [10]: > 195 µM (not active)

CCc1nc2ccc(C(=O)Nc3nnc(C)s3)cc2nc1CC
EC50 [2]: > 79.4 µM (not active)
EC50 [3]: > 79.4 µM (not active)
EC50 [4]: > 79.4 µM (not active)

O=C(Nc1ccc(S(=O)(=O)N2CCCC2)cc1)c1cccnc1
EC50 [1]: > 50 µM (active)

N#CC(C(=O)NCc1ccccc1)c1nc2ccccc2nc1N1CCCC1 (stereo not given)
EC50 [11]: 4.64 µM (active)
EC50 [12]: > 99 µM (inactive)
EC50 [13]: > 300 µM (inconclusive)
EC50 [14]: > 300 µM (inconclusive)

CCCN(CC(=O)Nc1ccccc1C)C(=O)COC(=O)CSc1ccc([N+](=O)[O-])cc1
IC50 [8]: > 66 µM (inactive)
IC50 [9]: > 66 µM (inactive)

Cn1cccc1-c1nc2cc(NC(=O)c3ccccc3)ccc2[nH]1
EC50 [2]: > 79.4 µM (not active)
EC50 [3]: > 79.4 µM (not active)
EC50 [4]: > 79.4 µM (not active)

CCCCCc1nc2c(c(=O)c3ccccc3n2C)c(=O)n1C1CCCCCC1
CC50 [15]: 10.4 µM (active)
AC50 (INS1): 7.76 µM (active)
EC50 [16]: 7.59 µM (active)
AC50 [17]: 3.56 µM (active)
AC50 [5]: 42.3 µM (active)
EC50 [18]: 6.38 µM (active)
AC50 [6]: 8.21 µM (active)
AC50 [7]: 5.56 µM (active)

O=C(CN1C(=O)/C(=C2\SC(=S)N(C3CCS(=O)(=O)C3)C2=O)c2ccccc21)Nc1ccc(F)cc1 (stereo not given)
IC50 [19]: 3.55 µM (active)

Cc1ccc(C23CC4CC(CC(CN)(C4)C2)C3)cc1
IC50 [20]: 50 µM (inactive)

c1cncc(CNC2CCCC2)c1
EC50 [2]: > 79.4 µM (not active)
EC50 [3]: > 79.4 µM (not active)
EC50 [4]: > 79.4 µM (not active)

C=CCN1C(=O)/C(=C2/Sc3ccccc3N2CC)SC1=S
EC50 [11]: > 99 µM (inactive)
EC50 [12]: 56.1 µM (inactive)
EC50 [13]: 16.1 µM (active)
EC50 [14]: 9.69 µM (active)

CCCCOC(=O)Nc1nnc(SCCOc2ccc(C)cc2)s1
IC50 [20]: > 64 µM (inactive)

Cc1ccc(NC(=O)c2ccccc2)s1
EC50 [1]: > 50 µM (active)

Cc1cc(C(F)F)n2nc(C(=O)Nc3sc4c(c3C(N)=O)CCC4)nc2n1
IC50 [19]: 40 µM (active)

CC12CC3(C)CC(C)(C1)CC(C(=O)NC(=S)N1CCCC1)(C2)C3
IC50 [20]: 50 µM (inactive)
